The values that follow come from PubChem BioAssay (NCI).

What all share (assay): NCI anticancer screen, dose series, 48 h
Assay [1] deals with RXF 393 renal.
The subject of assay [2] is OVCAR-4 ovarian.
Assay [3] concerns NCI-H23 lung.
Assay [4] deals with OVCAR-5 ovarian.
Assay [5] deals with LOX IMVI melanoma.
Assay [6] deals with SNB-19 CNS.
Assay [7] has as its system MCF7 breast.
The test system of assay [8] is SNB-75 CNS.
Assay [9] relates to A549 NSCLC.
In assay [10] the test system is SK-MEL-2 melanoma.
Assay [11] deals with SF-268 CNS.
For assay [12], the system named is MOLT-4 leukemia.
Assay [13] deals with NCI-H522 lung.
For assay [14], the system named is SF-539 CNS.
For assay [15], the system named is NCI/ADR-RES ovarian.
Assay [16] deals with SW-620 colon.
Assay [17] has as its system OVCAR-3 ovarian.
Assay [18] concerns SK-MEL-5 melanoma.
In assay [19] the test system is KM12 colon.
In assay [20] the test system is UACC-257 melanoma.

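Values below derive from 48-hour exposures of cells grown in 96-well plates, with endpoints linearly interpolated between the two concentrations bracketing the appropriate inhibition level. The concentration for full growth arrest is given as TGI.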 Where only a bound is given, the exact number is not on record here.

For the compound `O=C1CCc2cc3c(cc21)CC1(Cc2cc4c(cc2C1)CCCC4)C3`, the TGI in [1], in assay [2], in assay [3], in [4], in [5] and in assay [6] was above 100 µM each time. Further, the TGI in assay [7] was above 100 µM; in assay [8], 75.1 µM; in assay [9], above 100 µM; in [10] it was above 100 µM; in assay [11] it was above 100 µM; in assay [12], above 100 µM. Also, the TGI in assay [13], in assay [14], in assay [15], in [16], in [17] and in [18] was above 100 µM throughout. Moreover, the TGI in [19] and in [20] was above 100 µM in each case.
With `CCOC(=O)C1=NN(c2ccccc2)C2=CC(C)=NN(C)C(=S)N21`, the TGI in assay [1], in assay [2], in assay [3], in assay [4], in assay [5] and in assay [6] was above 100 µM in each case. Besides, the TGI in [7], in assay [8], in [9], in [10], in [11] and in [12] was above 100 µM in each case. Further, the TGI in [13], in assay [14], in assay [15], in assay [16], in assay [17] and in assay [18] was above 100 µM in each case. Besides, the TGI in assay [19] and in assay [20] was above 100 µM throughout.
As to `CC(=O)c1cccc(NC(=O)C(=O)C(C(=O)c2ccccc2F)C2OC(=O)c3ccccc32)c1` (centres undefined), the TGI was 70 µM in assay [1]; above 100 µM in assay [2]; above 100 µM in assay [3]; above 100 µM in assay [4]; 62.9 µM in assay [5]; above 100 µM in assay [6]. The TGI in assay [8] was 76.3 µM; in assay [9], above 100 µM; in assay [10], 96.1 µM; in [11] it was above 100 µM; in assay [12] it was above 100 µM; in assay [13], 56.7 µM. Moreover, the TGI in assay [16], in [18], in assay [19] and in [20] was above 100 µM in each case.
With `CC[C@](C)(O)C(=O)O[C@H]1C(=O)O[C@@H]2C[C@H]3C(C)=C[C@H](O)[C@@H](O)[C@]3(C)[C@H]3[C@@]4(O)OC[C@]32[C@@H]1[C@@H](C)[C@H]4O`, the TGI is 2.43 µM in assay [1]; 185 µM in assay [2]; 13.5 µM in [3]; 291 µM in [4]; 68.4 µM in assay [5]; 48.8 µM in [6]. Also, the TGI turned out to be 39 µM in assay [7]; 86.5 µM in [8]; 292 µM in assay [9]; 118 µM in assay [10]; 207 µM in assay [11]; 27.5 µM in [12]. In addition, the TGI in [13] is 9.8 µM; in assay [14] it was 47.2 µM; in assay [15], above 205 µM; in [16], 61.7 µM; in assay [17], 84.5 µM; in [18] it was 30 µM. Further, the TGI turned out to be 109 µM in [19] and 149 µM in assay [20].
Consider `CCOC(=O)/C=C/c1c[nH]c(C(=O)OCC)c1`, for which the TGI in assay [1], in [2], in assay [3], in [4], in assay [5] and in assay [6] was above 100 µM each time. The TGI in assay [7], in [8], in assay [9], in assay [10], in assay [11] and in assay [12] was above 100 µM in each case. The TGI in assay [13], in [14], in assay [15], in [16], in assay [17] and in [18] was above 100 µM in each case. In addition, the TGI in assay [19] and in [20] was above 100 µM throughout.
On to `CN(C)CCCNc1ccc2nnn3c4ccc(OC(=O)c5ccc([N+](=O)[O-])cc5)cc4c(=O)c1c23`, for which the TGI in [1] was 9.08 µM; in assay [2] it was 10.9 µM; in assay [3], 24.5 µM; in assay [4], 28 µM; in assay [5], above 100 µM; in [6] it was 22.8 µM. The TGI in [7] was above 38.9 µM; in assay [9], 20.6 µM; in assay [10] it was above 52.1 µM; in assay [11], 21.9 µM; in assay [12] it was 33.2 µM; in [13] it was 24 µM. Moreover, the TGI came out at 19.3 µM in assay [14]; 37.5 µM in assay [15]; 17 µM in assay [16]; 24.1 µM in assay [17]; 21.3 µM in [19]; 31 µM in [20].
For `CC1CC(C)(O)CC(C(O)CC2CC(=O)NC(=O)C2)C1=O` (centres undefined), the TGI in assay [1] was 1.05 µM; in assay [2], 0.87 µM; in [3], 1.56 µM; in assay [4] it was 9.21 µM; in assay [5] it was 0.785 µM; in assay [6], 2.24 µM. In addition, the TGI was 0.686 µM in assay [7]; 1.27 µM in assay [8]; 7.19 µM in assay [9]; 2.68 µM in [10]; above 69.3 µM in assay [11]; 0.229 µM in assay [12]. For the same compound, the TGI is below 0.0476 µM in [13]; 0.226 µM in assay [14]; 5.87 µM in [15]; 1.53 µM in [16]; 3.43 µM in [17]; 0.195 µM in assay [18]. In addition, the TGI is 1.41 µM in [19] and above 100 µM in assay [20].
As for `Nc1nc(Cl)cc(NCCCCCCCCCCCCNc2cc(Cl)nc(N)n2)n1`, the TGI was 44.5 µM in assay [1]; 75.2 µM in assay [2]; 12.6 µM in assay [3]; 14.5 µM in [5]; 34 µM in [8]; above 100 µM in assay [9]. The TGI in assay [10] was above 100 µM; in assay [11], above 100 µM; in assay [12], above 100 µM; in [14] it was 72.5 µM; in assay [16], above 100 µM; in [17], above 100 µM. The TGI was 3.72 µM in [18], above 100 µM in assay [19] and above 100 µM in [20].
